# Source: patent publication US6632456B1, “Compositions for inhalation” (AstraZeneca AB, priority 1994, dated 2003)
# Where a name gives a salt, the structure may show the parent alone.
# What was measured:
# [1] = Enhancement of insulin uptake after powder inhalation in a rat model (blood glucose); type: in vivo, rats; details: for enhancement of polypeptide (insulin) absorption in the lung: rat model of Example 2, substance tested as enhancer; for Effect (decrease in blood glucose level): rats, inhaled powder
# Method: Each of the compounds listed in Table I was tested for its ability to enhance uptake of a polypeptide (insulin) in a rat model.
# Various forms of insulin were employed in the different trials: recombinant human, semisynthetic human or bovine. Each formulation was prepared as above, drying and processing the insulin/enhancer or insulin/enhancer/lactose solution to produce an inhalable powder. The powder was administered to rats by inhalation, and the blood glucose levels of the rats were subsequently monitored as a measure of insulin uptake. These levels were compared to the corresponding values obtained from rats which had inhaled insulin formulations without enhancer.
# [2] = tested on: CaCo-2 epithelial cell monolayer; assay: CaCo-2 epithelial cell monolayer transport assay; type: in vitro ADME; details: for transport rate across the monolayer: CaCo-2, up to 16 mM sodium caprate
# Method: A standard in vitro assay utilizing an epithelial cell line, CaCo-2 (available through the American Type Culture Collection (ATCC), Rockville, Md., USA), has been developed to assess the ability of various enhancer compounds to promote transport of markers across an epithelial cell monolayer, as a model for the epithelial cell layer which functions in the lung to separate the alveolus from the pulmonary blood supply.
# In this assay, the enhancer and polypeptide or other marker are dissolved in aqueous solution at various proportions and/or concentrations, and applied to the apical side of the cell monolayer. After 60 min incubation at 37° C. and 95% RH (relative humidity), the amount of the marker on the basolateral side of the cells is determined, e.g., by use of a radioactively labelled marker.
# [3] = parameters: species or system rats; details: rat, in vivo
# Method: The mixture was milled in a Retsch mechanical mill to a particle size of mass median diameter 6.7 μm. The resultant powder was administered intratraceally in rats and the uptake of hGH compared with that of a powder, MMD 9.6 μm, comprising hGH and mannitol in the same proportions and prepared in the same way as above.
# [4] = Enhancer:Insulin:lactose 2:4:94, vs insulin without enhancer
# [5] = Enhancer:Insulin:lactose 4:4:92, vs insulin without enhancer
# [6] = Enhancer:Insulin:lactose 25:75:0, vs insulin without enhancer
Compound,enhancement of polypeptide (insulin) absorption in the lung [1],"Effect (decrease in blood glucose level) [1, 5]",other results
CC(=O)OC1CC2(C)C(CC(O)C3C4(C)CCC(O)C(C)C4CCC32C)C1=C(CCCC(C)C)C(=O)NCCS(=O)(=O)O (centres unmarked) [Sodium taurodihydrofusidate],effectively enhance polypeptide absorption in the lung,,"Effect (decrease in blood glucose level) [1, 4]: +"
C[C@H](CCC(=O)[O-])[C@H]1CC[C@H]2[C@@H]3[C@@H](O)C[C@@H]4C[C@H](O)CC[C@]4(C)[C@H]3CC[C@]12C.[Na+] [Sodium ursodeoxycholate],effectively enhance polypeptide absorption in the lung,+,
CCCCCCCC(=O)OCC(COP(=O)([O-])OCC[N+](C)(C)C)OC(=O)CCCCCCC (centres unmarked) [Dioctanoylphosphatidylcholine],,,"Effect (decrease in blood glucose level) [1, 4]: (+)"
C[C@H](CCC(=O)NCC(=O)[O-])[C@H]1CC[C@H]2[C@@H]3[C@H](O)C[C@@H]4C[C@H](O)CC[C@]4(C)[C@H]3C[C@H](O)[C@]12C.[Na+] [Sodium glycocholate],effectively enhance polypeptide absorption in the lung,+,
O=C(O)CN(CCN(CC(=O)O)CC(=O)O)CC(=O)O [sodium salt of ethylenediaminetetraacetic acid],ineffective,,
carbonic anhydrase,,,transport rate across the monolayer [2]: no increase in transport rate
CCCCCCCCCC(=O)[O-].[K+] [Potassium caprate],effective,,"Effect (decrease in blood glucose level) ([1]; Enhancer:Insulin:lactose 27:73:0, vs insulin without enhancer): +"
albumin,,,transport rate across the monolayer [2]: no increase in transport rate
CCCCCCCCCCCCCC(=O)[O-].[Na+] [Sodium myristate],perform well,,"Effect (decrease in blood glucose level) ([1]; Enhancer:Insulin:lactose 30:70:0, vs insulin without enhancer): +"
CCCCCCCC/C=C\CCCCCCCC(=O)[O-].[K+] [Potassium oleate],,+,
Lysine caprate,effective,,"Effect (decrease in blood glucose level) ([1]; Enhancer:Insulin:lactose 35:65:0, vs insulin without enhancer): +"
CCCCCCCCOC1O[C@H](CO)[C@@H](O)[C@H](O)[C@H]1O (some centres unmarked) [Octylglucopyranoside],some absorption enhancing properties,(+),
"hGH: Human hormone (hGH, MW 22 kD, source Humatrope from Lilly), 3 parts mixed with sodium caprate (1 part), milled powder",,,uptake of hGH [3]: improvement in the uptake
CCCCCCCCCC(=O)[O-].[Na+] [Sodium caprate],perform well,+,"amount of marker (mannitol) which appears on the basolateral side, insulin added ([2]; CaCo-2 monolayer, 1:3 sodium caprate:insulin by weight (FIG. 2)): This is true; amount of marker (mannitol) which appears on the basolateral side ([2]; CaCo-2 monolayer, 60 min, 37° C., up to 16 mM sodium caprate (FIG. 1)): dependent upon the concentration of enhancer used; Effect (decrease in blood glucose level) ([1]; Enhancer:Insulin:lactose 10:90:0, vs insulin without enhancer): (+); Effect (decrease in blood glucose level) ([1]; Enhancer:Insulin:lactose 17.5:82.5:0, vs insulin without enhancer): (+); Effect (decrease in blood glucose level) [1, 6]: +"
Dimethyl-β-cyclodextrin,absorption enhancing effect,,"Effect (decrease in blood glucose level) ([1]; Enhancer:Insulin:lactose 75:25:0, vs insulin without enhancer): +"
C[C@H](CCC(=O)NCCS(=O)(=O)O)[C@H]1CC[C@H]2[C@@H]3[C@H](O)C[C@@H]4C[C@H](O)CC[C@]4(C)[C@H]3C[C@H](O)[C@]12C [Sodium taurocholate],effectively enhance polypeptide absorption in the lung,+,
CCCCCCCCCC(=O)OC[C@H](COP(=O)([O-])OCC[N+](C)(C)C)OC(=O)CCCCCCCCC [Didecanoylphospatidylcholine],,,"Effect (decrease in blood glucose level) ([1]; Enhancer:Insulin:lactose 4:4:94, vs insulin without enhancer): −"
cytochrome C,,,transport rate across the monolayer [2]: no increase in transport rate
Lysophosphatidylcholine,effective enhancer,+,
CCCCCCCC(=O)[O-].[Na+] [Sodium caprylate],,,"Effect (decrease in blood glucose level) [1, 6]: −"
CCCCCCCCCCCC(=O)[O-].[Na+] [Sodium laurate],perform well,,"Effect (decrease in blood glucose level) [1, 6]: (+)"
